Experimental data reported in patent publication US9795574B2, “Method for preparing agomelatine cocrystals and composition containing same” (SOONCHUNHYANG UNIVERSITY INDUSTRY ACADEMY COOPERATION …, priority 2014, dated 2017).

Tests used:
[1] = Intrinsic dissolution rate (IDR) of pellets, USP equipment 2 (paddle method); type: physicochemical; conditions: for Dissolution rate (intrinsic dissolution rate in terms of ratio): 37° C., 50 rpm, ratio to agomelatine
Experimental: In order to measure the intrinsic dissolution rate (IDR) of agomelatine and the agomelatine-resorcinol co-crystal, 50 mg of agomelatine and 72.63 mg of the agomelatine-resorcinol co-crystal of Example 1 were molded into a number of pellets having a constant surface area and then subjected to a dissolution testing.
Each powder specimen was put in a 13 mm pellet die (Specac, UK), squeezed down under a weight of 0.5 ton for 2 minutes with a hydraulic compressor and then molded into pellets having a constant surface area of 1.33 cm^2.
The pellets thus obtained were immobilized in 900 ml of a testing solution (pH 1.2 HCl aqueous solution and pH 6.8 phosphate-buffer solution) at 37° C., which solution was stirred with USP equipment 2 (paddle method) operated at 50 rpm. Then, the concentration of the agomelatine released from the pellets was measured.
3 ml of the testing solution was collected each time of 3 min, 5 min, 10 min, 15 min, 20 min, 25 min, 30 min, 45 min, 60 min, 75 min, 90 min, 105 min, and 120 min. The concentration (dissolved amount) of agomelatine in the collected solution was measured with UV-3600 (Shimadzu, Japan) spectrochemical analysis equipment.
FIG. 11 presents the results of the dissolution testing for the agomelatine and the agomelatine-resorcinol co-crystal in an aqueous solution of HCl (pH 1.2) and a phosphate-buffered solution (pH 6.8).

[2] = Thermal stability testing: powder kept at 70° C., then X-ray diffraction analysis; type: physicochemical
Description: In other words, the antisolvent method of the present invention makes it possible to produce an agomelatine-resorcinol co-crystal with higher stability.

[3] = Medium pH = 1.2 HCl aqueous solution
[4] = Medium pH = 6.8 phosphate-buffer solution

Compound	Dissolution rate (intrinsic dissolution rate in terms of ratio) [1, 3]	Dissolution rate (intrinsic dissolution rate in terms of ratio) [1, 4]	dissolution rate higher than agomelatine ([1]; acidic medium (pH 1.2))	dissolution rate higher than agomelatine ([1]; neutral medium (pH 6.8))	crystal form after storage (XRD) ([2]; kept at 70° C. for 30 days)	crystal form after storage (XRD) ([2]; same temperature conditions (70° C.), 7 days)
agomelatine-resorcinol co-crystal [Example 1]	2.3	3.2	2.3 fold	3.2 fold	pure crystal form was maintained	
agomelatine-resorcinol co-crystal [Preparation Example 1, reference compound]						deformation occurred
COc1ccc2cccc(CCNC(C)=O)c2c1 [Agomelatine, agomelatine]	1.0	1.0				
